In patent US20260284005A1, “INHIBITING MITOGEN-ACTIVATED PROTEIN (MAP)/ERK KINASE (MEK)1 AND MEK2 AND RELATED METHODS OF TREATMENT” (priority 2023, published 2026):
Like-named read-outs stand apart in the source and are kept apart here.

How the values were obtained:
CORL23 cells = assay: 3D-TGA; assay type: cell-based; details: Homo sapiens, COR-L23, CORL23, LUN, KRAS G12V, ALK R317T
Method: (§1) Cells were seeded in 3D cultures in a black-walled, clear-bottom, non-tissue culture treated, 384-well plate (3000 cells per well) using a 1:1 mixture of BME and a custom media and grown in a humidified incubator with 5% CO2 and 5% O2, which approximates capillary levels for each gas, at 37° C. […] Cells were assessed for cell proliferation using EdU cell proliferation staining. […] Cells were permeabilized with 30 μL of filtered 0.5% Triton X-100 in PBS for 20 minutes at room temperature. Samples were washed twice gently with PBS. Cells were stained utilizing click-iT chemistry by adding 20 μL of staining cocktail containing 2 mM copper sulfate, 8 μM sulfo-Cy5-azide, and 20 mg/ml ascorbic acid in PBS and incubated 30-60 minutes at room temperature in dark. […] Plates were imaged with the Molecular Devices Pico ImageXpress. Images were segmented and percentage of cells with EdU incorporation was quantified to calculate antiproliferative effects of the drugs.
(§2) Five (5)-ethynyl-2′-deoxyuridine (EdU) data was represented as percentage EdU positive cells quantified by high content imaging from the Molecular Devices ImageXpress® Pico.

NCI-H2087 cells = assay: 3D-TGA; assay type: cell-based; details: Homo sapiens, NCI-H2087, LUN, NRAS Q61K, ALK S553A
Method: as §1, §2

SW900 cells = assay: 3D-TGA; assay type: cell-based; details: Homo sapiens, SW900, LUN, KRAS G12V, ALK G103R
Method: as §1, §2

MIA PaCa-2 cells = assay: 3D-TGA; assay type: cell-based, human; details: KRAS G12C
AsPC-1 cells = assay: 3D-TGA; assay type: cell-based, human; details: Homo sapiens, ASPC1; AsPC-1, PAN, KRAS G12D; read-out: IC50 in 3D-TGA, agent alone
Method: as §1, §2

CFPAC-1 cells = assay: 3D-TGA; assay type: cell-based, human; details: CFPAC-1, PAN, KRAS G12V, read-out: IC50 in 3D-TGA, agent alone
Method: as §1, §2

Capan-1 cells = assay: 3D-TGA; assay type: cell-based, human; details: Capan-1, PAN, KRAS G12V, read-out: IC50 in 3D-TGA, agent alone
Method: as §1, §2

Capan-2 cells = assay: 3D-TGA; assay type: cell-based, human; details: Capan-2, PAN, KRAS G12V, read-out: IC50 in 3D-TGA, agent alone
Method: as §1, §2

HPAC cells = assay: 3D-TGA; assay type: cell-based, human; details: PAN, KRAS G12D, read-out: IC50 in 3D-TGA, agent alone
Method: as §1, §2

HPAF-II cells = assay: 3D-TGA; assay type: cell-based, human; details: PAN, KRAS G12D, read-out: IC50 in 3D-TGA, agent alone
Method: as §1, §2

PANC-1 cells = assay: 3D-TGA; assay type: cell-based, human; details: PANC-1, PAN, KRAS G12D, read-out: IC50 in 3D-TGA, agent alone
Method: as §1, §2

PSN-1 cells = assay: 3D-TGA; assay type: cell-based, human; details: PSN-1, PAN, KRAS G12R, read-out: IC50 in 3D-TGA, agent alone
Method: as §1, §2

Panc 10.05 cells = assay: 3D-TGA; assay type: cell-based, human; details: Panc 10.05, PAN, KRAS G12D, read-out: IC50 in 3D-TGA, agent alone
Method: as §1, §2

PA-TU-8988S cells = assay: 3D-TGA; assay type: cell-based; details: Homo sapiens, PaTu 8988s, PAN, KRAS G12V, read-out: IC50 in 3D-TGA, agent alone
Method: as §1, §2

Panc 03.27 cells = assay: 3D-TGA; assay type: cell-based; details: Homo sapiens, PANC-03-27; Panc 03.27, PAN, KRAS G12V; read-out: IC50 in 3D-TGA, agent alone
Method: as §1, §2

CL-40 cells = assay: 3D-TGA; assay type: cell-based, human; details: read-out: IC50 in 3D-TGA, agent alone
Method: as §1, §2

HT-29 cells = assay: 3D-TGA; assay type: cell-based, human
Method: as §1, §2

LS1034 cells = assay: 3D-TGA; assay type: cell-based, human; details: LS1034, COL, KRAS A146T, read-out: IC50 in 3D-TGA, agent alone
Method: as §1, §2

RCM-1 cells = assay: 3D-TGA; assay type: cell-based, human
Method: as §1, §2

SNU-1197 cells = assay: 3D-TGA; assay type: cell-based, human; details: read-out: IC50 in 3D-TGA, agent alone
Method: as §1, §2

SW626 cells = assay: 3D-TGA; assay type: cell-based, human
Method: as §1, §2

pancreatic cancer = details: Phase III MPACT, 1st Line; cited from earlier work
NCI-H508 cells = assay: 3D-TGA; assay type: cell-based; details: Homo sapiens, read-out: IC50 in 3D-TGA Osimertinib; NCI-H508, COL, BRAF G596R; agent alone
SK-CO-1 cells = assay: 3D-TGA; assay type: cell-based; details: Homo sapiens, read-out: IC50 in 3D-TGA Osimertinib; SK-CO-1, COL, KRAS G12V; agent alone
LS411N cells = assay: 3D-TGA; assay type: cell-based; details: Homo sapiens, LS-411N, read-out: IC50 in 3D-TGA Osimertinib; LS411N, COL, BRAF V600E; agent alone
NCI-H358 cells = assay: 3D-TGA; assay type: cell-based, human; details: NCI-H358, LUN, KRAS G12C
NCI-H1792 cells = assay: 3D-TGA; assay type: cell-based, human; details: Homo sapiens, read-out: IC50 in 3D-TGA Osimertinib; NCI-H1792, LUN, KRAS G12C; agent alone
NCI-H820 cells = assay: 3D-TGA; assay type: cell-based; details: Homo sapiens, read-out: IC50 in 3D-TGA Osimertinib; NCI-H820, LUN, EGFR T790M; agent alone
NCI-H1975 cells = assay: 3D-TGA; assay type: cell-based; details: Homo sapiens, read-out: IC50 in 3D-TGA Osimertinib; NCI-H1975, LUN, EGFR L858R; agent alone
NCI-H1650 cells = assay: 3D-TGA; assay type: cell-based; details: Homo sapiens, NCI-H1650, read-out: IC50 in 3D-TGA Osimertinib
NCI-H2172 cells = assay: 3D-TGA; assay type: cell-based; details: Homo sapiens, read-out: IC50 in 3D-TGA Osimertinib; NCI-H2172, LUN, EGFR L858R; agent alone
HCC827 cells = assay: cells; assay type: cell-based; details: Homo sapiens, HCC827, read-out: IC50 in 3D-TGA Osimertinib
A549 cells = assay: 3D-TGA; assay type: cell-based, human; details: A549, LUN, KRAS G12S; read-out: IC50 in 3D-TGA, agent alone
Method: as §1, §2

Calu-6 cells = assay: 3D-TGA; assay type: cell-based, human; details: Calu-6, LUN, KRAS Q61K; read-out: IC50 in 3D-TGA, agent alone
Method: as §1, §2

PA-TU-8988T cells = assay: 3D-TGA; assay type: cell-based, human; details: PAN, KRAS G12V, read-out: IC50 in 3D-TGA, agent alone
Method: as §1, §2

[1] = read-out: IC50 in 3D-TGA Alectinib
[2] = agent alone, read-out: IC50 in 3D-TGA Crizotinib
[3] = MIA-PaCa2, PAN, read-out: IC50 in 3D-TGA, agent alone
[4] = HT-29, COL, BRAF V600E, read-out: IC50 in 3D-TGA, agent alone
[5] = RCM-1, COL, KRAS G12V, read-out: IC50 in 3D-TGA, agent alone
[6] = SW626, COL, KRAS G12V, read-out: IC50 in 3D-TGA, agent alone

Work on CCc1cc2c(cc1N1CCC(N3CCOCC3)CC1)C(C)(C)c1[nH]c3cc(C#N)ccc3c1C2=O [Alectinib, alectinib] yielded an IC50 (CORL23 cells; [1]) of 1000 nM, an IC50 (NCI-H2087 cells; [1]) of 1000 nM and an IC50 (SW900 cells; [1]) of 1000 nM.
In the case of O=c1[nH]cc(F)c(=O)[nH]1 [Compound 5-FU, 5-fluorouracil], the IC50 (MIA PaCa-2 cells; Homo sapiens, MIA PaCa-2, MIA-PaCa2, PAN, read-out: IC50 in 3D-TGA, agent alone) is reported as 1000 nM, the IC50 (AsPC-1 cells) is reported as 1000 nM and the IC50 (CFPAC-1 cells; Homo sapiens) is reported as 1000 nM. The IC50 (Capan-1 cells; Homo sapiens) was 1000 nM, the IC50 (Capan-2 cells; Homo sapiens) was 1000 nM and the IC50 (HPAC cells; Homo sapiens) was 1000 nM. It also gave an IC50 (HPAF-II cells; Homo sapiens) of 1000 nM, an IC50 (PANC-1 cells; Homo sapiens) of 1000 nM and an IC50 (PSN-1 cells; Homo sapiens, PSN1) of 1000 nM. The IC50 (Panc 10.05 cells; Homo sapiens, Panc1005) was 1000 nM, the IC50 (PA-TU-8988S cells) was 1000 nM and the IC50 (Panc 03.27 cells) was 1000 nM.
Compound C[C@@H](Oc1cc(-c2cnn(C3CCNCC3)c2)cnc1N)c1c(Cl)ccc(F)c1Cl [Crizotinib, crizotinib] has an IC50 (CORL23 cells; [2]) of 1000 nM, an IC50 (NCI-H2087 cells; [2]) of 1000 nM and an IC50 (SW900 cells; [2]) of 1000 nM.
In the case of Nc1ccn([C@@H]2O[C@H](CO)[C@@H](O)C2(F)F)c(=O)n1 [Gemcitabine, gemcitabine], the IC50 (CL-40 cells; Homo sapiens) is reported as under 50 nM, the IC50 (HT-29 cells; Homo sapiens, HT-29, read-out: IC50 in 3D-TGA, agent alone) is reported as under 50 nM and the IC50 (LS1034 cells; Homo sapiens, LS-1034) is reported as 500 to 1000 nM. It also gave an IC50 (RCM-1 cells; Homo sapiens, RCM-1, read-out: IC50 in 3D-TGA, agent alone) of 500 to 1000 nM, an IC50 (SNU-1197 cells; Homo sapiens) of 100 to 500 nM and an IC50 (SW626 cells; Homo sapiens, SW626, read-out: IC50 in 3D-TGA, agent alone) of 100 to 500 nM. The ORR (pancreatic cancer) was 7%.
In the case of C=CC(=O)Nc1cc(Nc2nccc(-c3cn(C)c4ccccc34)n2)c(OC)cc1N(C)CCN(C)C [Osimertinib, osimertinib], the IC50 (MIA PaCa-2 cells; Homo sapiens, read-out: IC50 in 3D-TGA Osimertinib, MIA PACA-2, PAN, agent alone) is reported as 1000 nM, the IC50 (NCI-H508 cells) is reported as 1000 nM and the IC50 (SK-CO-1 cells) is reported as 1000 nM. The IC50 (LS411N cells) was 1000 nM, the IC50 (NCI-H358 cells; Homo sapiens, read-out: IC50 in 3D-TGA Osimertinib, agent alone) was 1000 nM and the IC50 (NCI-H1792 cells) was 1000 nM. For the same compound, the IC50 (NCI-H820 cells) was 1000 nM, the IC50 (NCI-H1975 cells) was […] and the IC50 (NCI-H1650 cells) was 1000 nM. For the same compound, the IC50 (NCI-H2172 cells) was 1000 nM and the IC50 (HCC827 cells) was 50 nM.
For O=C1[O][Pt]2([NH][C@@H]3CCCC[C@H]3[NH]2)[O]C1=O [Oxaliplatin, oxaliplatin], the IC50 (MIA PaCa-2 cells; [3]) was 1000 nM, the IC50 (A549 cells) was 1000 nM and the IC50 (CFPAC-1 cells) was 1000 nM. For the same compound, the IC50 (CL-40 cells; CL-40, COL, KRAS G12D) was 100 to 500 nM, the IC50 (Calu-6 cells) was 1000 nM and the IC50 (Capan-1 cells) was 100 to 500 nM. For the same compound, the IC50 (Capan-2 cells) was 1000 nM, the IC50 (HPAC cells) was 1000 nM and the IC50 (HPAF-II cells) was 1000 nM. The IC50 (HT-29 cells; [4]) was 1000 nM, the IC50 (LS1034 cells) was 1000 nM and the IC50 (PA-TU-8988T cells) was 1000 nM. It also gave an IC50 (PANC-1 cells) of 1000 nM, an IC50 (PSN-1 cells) of 1000 nM and an IC50 (Panc 10.05 cells) of 1000 nM. For the same compound, the IC50 (RCM-1 cells; [5]) was 500 to 1000 nM, the IC50 (SNU-1197 cells; SNU-1197, COL, KRAS G12D) was 1000 nM and the IC50 (SW626 cells; [6]) was 1000 nM. For the same compound, the IC50 (NCI-H358 cells; read-out: IC50 in 3D-TGA, agent alone) was 1000 nM.
CCc1c2c(nc3ccc(O)cc13)-c1cc3c(c(=O)n1C2)COC(=O)[C@]3(O)CC [SN-38] showed an IC50 (MIA PaCa-2 cells; [3]) of under 50 nM, an IC50 (CFPAC-1 cells) of under 50 nM and an IC50 (CL-40 cells; CL-40, COL, KRAS G12D) of under 50 nM. It also gave an IC50 (Capan-1 cells) of under 50 nM, an IC50 (Capan-2 cells) of under 50 nM and an IC50 (HPAC cells) of under 50 nM. The IC50 (HPAF-II cells) was under 50 nM, the IC50 (HT-29 cells; [4]) was under 50 nM and the IC50 (LS1034 cells) was under 50 nM. It also gave an IC50 (PA-TU-8988T cells) of under 50 nM, an IC50 (PANC-1 cells) of under 50 nM and an IC50 (Panc 10.05 cells) of under 50 nM. The IC50 (RCM-1 cells; [5]) was under 50 nM, the IC50 (SNU-1197 cells; SNU-1197, COL, KRAS G12D) was under 50 nM and the IC50 (SW626 cells; [6]) was under 50 nM.
